Results: patent EP4722219A1 (Gan & Lee Pharmaceuticals Co., Ltd., priority 2023, dated 2024)

Assays:
[1] = tested on: VCaP cells; assay: Inhibition of VCaP cell proliferation (WST-8); type: cell-based; settings: 168 hours
Procedure, shortened: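 Proliferation was read on day 9 as WST-8 absorbance at 450 nm after VCaP cells (15,000/well, DMEM/10% FBS, 37°C) were exposed from day 2 to compound at 9 points, 5-fold serial dilution, top final concentration 10 µM.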

[2] = molecular target: T1, AR protein (Homo sapiens, UniProt P10275, T878A); assay: AR protein degradation in LNCaP cells (Western blot); type: cell-based; settings: 8 hours
T1 construct: host or cells: LNCaP FGC
T1 sequence (P10275 1-920 T878A): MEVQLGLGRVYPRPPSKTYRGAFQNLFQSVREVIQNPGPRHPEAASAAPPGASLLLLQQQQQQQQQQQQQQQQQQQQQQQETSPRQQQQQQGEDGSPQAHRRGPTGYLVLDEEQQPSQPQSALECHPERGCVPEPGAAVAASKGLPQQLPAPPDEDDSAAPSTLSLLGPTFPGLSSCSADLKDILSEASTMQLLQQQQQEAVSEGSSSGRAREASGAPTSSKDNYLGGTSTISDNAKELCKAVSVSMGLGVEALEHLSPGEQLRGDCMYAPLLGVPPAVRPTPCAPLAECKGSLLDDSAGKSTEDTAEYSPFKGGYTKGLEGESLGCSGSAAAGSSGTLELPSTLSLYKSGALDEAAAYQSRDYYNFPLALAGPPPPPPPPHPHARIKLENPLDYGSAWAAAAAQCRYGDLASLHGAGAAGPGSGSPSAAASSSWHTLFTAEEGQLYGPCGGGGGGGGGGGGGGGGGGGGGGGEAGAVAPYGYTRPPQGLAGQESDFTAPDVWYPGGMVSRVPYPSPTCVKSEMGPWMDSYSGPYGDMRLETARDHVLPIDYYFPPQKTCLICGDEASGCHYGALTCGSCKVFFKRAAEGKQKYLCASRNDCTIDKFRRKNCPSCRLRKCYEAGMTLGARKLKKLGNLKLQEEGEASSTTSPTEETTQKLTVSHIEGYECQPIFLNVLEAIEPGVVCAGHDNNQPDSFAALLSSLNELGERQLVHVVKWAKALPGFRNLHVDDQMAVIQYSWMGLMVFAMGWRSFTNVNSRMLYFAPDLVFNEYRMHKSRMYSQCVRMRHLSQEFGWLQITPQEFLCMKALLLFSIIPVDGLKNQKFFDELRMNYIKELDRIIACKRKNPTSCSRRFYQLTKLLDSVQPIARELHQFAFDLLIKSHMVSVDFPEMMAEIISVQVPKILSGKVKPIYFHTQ
Procedure, shortened: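 AR degradation rate derived from Western blot band densitometry, referenced to GAPDH, using total lysates of LNCaP cells treated 8 h with compound versus solvent control. Detection used infrared dual-color imaging after SDS-PAGE and PVDF transfer.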

| SMILES | IC50 ([1]; Homo sapiens) | Degradation of AR protein in LNCaP cells, 10 nM (%) [2] | Degradation of AR protein in LNCaP cells, 100 nM (%) [2] | IC50 [1] |
| --- | --- | --- | --- | --- |
| COc1cc(O[C@H]2C(C)(C)[C@H](NC(=O)c3ccc(N4CCC(CN5CCC6(CCc7cc(F)c(C(=O)N[C@H]8CCC(=O)NC8=O)cc7O6)CC5)CC4)cc3)C2(C)C)ccc1C#N [A-P-39] | > 10000 nM | 22% | 39% |  |
| COc1cc(O[C@H]2C(C)(C)[C@H](NC(=O)c3ccc(N4CCC(CN5CCN(c6ccc(C(=O)N[C@H]7CCC(=O)NC7=O)c(F)c6)CC5)CC4)cc3)C2(C)C)ccc1C#N [ARV-766, reference compound] |  | 49% | 78% | 779 nM |
| N#Cc1ccc(O[C@H]2CC[C@H](NC(=O)c3ccc(N4CCC(N5CCC6(CC5)CCC5(CC6)COc6c5ccc5c6CN(C6CCC(=O)NC6=O)C5=O)CC4)nn3)CC2)cc1Cl (relative stereo) [A-P-7, N-((1r,4r)-4-(3-chloro-4-cyanophenoxy)cyclohexy 1)-6-(4-(7-(2,6-dioxopiperidin-3-yl)-6-oxo-7,8-dihydro-2H,6H-dipyridyl[2,3-e]isoindole-3,1'-cyclohexane-4',4'"-piperidin]-1"-yl)pyridazine-3-carboxamide] | 6 nM | 85% | 75% |  |
| COc1cc(O[C@H]2C(C)(C)[C@H](NC(=O)c3ccc(N4CCC(C)(CN5CC6(CCC7(CC6)COc6c7ccc7c6CN(C6CCC(=O)NC6=O)C7=O)C5)CC4)cc3)C2(C)C)ccc1C#N (relative stereo) [A-P-4] | 0.19 nM | 74% | 83% |  |
| COc1cc(O[C@H]2C(C)(C)[C@H](NC(=O)c3ccc(N4CCC(F)(CN5CC6(CCC7(CC6)COc6c7ccc7c6CN(C6CCC(=O)NC6=O)C7=O)C5)CC4)cc3)C2(C)C)ccc1C#N (relative stereo) [A-P-5] | 1.7 nM | 43% | 62% |  |
| COc1cc(O[C@H]2C(C)(C)[C@H](NC(=O)c3ccc(N4CCC(CN5CCC6(CC5)COc5c6ccc(C(=O)N[C@H]6CCC(=O)NC6=O)c5F)(OC)CC4)cc3)C2(C)C)ccc1C#N [A-P-86, 1'-((1-(4-(((1r,3r)-3-(4-cyano-3-methoxyphenoxy)-2,2,4,4-tetramethylcyclobutyl)carbamoyl)phenyl)-4-methoxypiperidin-4-yl)methyl)-N-((S)-2,6-dioxopiperidin-3-yl)-7-fluoro-2H-spiro[benzofuran-3,4'-piperidin]-6-carboxamide] | 1790 nM | 37% | 39% |  |
| COc1cc(O[C@H]2C(C)(C)[C@H](NC(=O)c3ccc(N4CCC(CN5CC6(CCC7(CC6)COc6c7ccc7c6CN(C6CCC(=O)NC6=O)C7=O)C5)CC4)cc3)C2(C)C)ccc1C#N (relative stereo) [A-P-3] | 0.017 nM | 64% | 65% |  |
| COc1cc(O[C@H]2C(C)(C)[C@H](NC(=O)c3ccc(N4CCC(C)(CN5CCC6(CC5)COc5cc7c(cc56)n(C)c(=O)n7C5CCC(=O)NC5=O)CC4)cc3)C2(C)C)ccc1C#N (relative stereo) [A-P-16] | 1 nM | 49% | 29% |  |
| Cn1c(=O)n(C2CCC(=O)NC2=O)c2cc3c(cc21)C1(CCN(C2CC4(CCN(c5ccc(C(=O)N[C@H]6CC[C@H](Oc7ccc(C#N)c(Cl)c7)CC6)nn5)CC4)C2)CC1)CO3 (relative stereo) [A-P-12, N-((1r,4r)-4-(3-chloro-4-cyanophenoxy)cyclohexy 1)-6-(2-(3-(2,6-dioxopiperidin-3-yl)-1-methyl-2-oxo-2,3-dihydro-1H,6H-spiro[benzofuro[5,6-d]imidazole-7,4'-piperidin]-1'-yl)-7-azaspiro[3.5]nonan-7-yl)pyridazine-3-carboxamide] | 0.023 nM | 56% | 9% |  |

The remaining lines, values ahead:

| IC50 ([1]; Homo sapiens) | Degradation of AR protein in LNCaP cells, 10 nM (%) [2] | Degradation of AR protein in LNCaP cells, 100 nM (%) [2] | IC50 [1] | SMILES |
| --- | --- | --- | --- | --- |
| > 10000 nM | -37% | -31% |  | COc1cc(O[C@H]2C(C)(C)[C@H](NC(=O)c3ccc(N4CCC(F)(CN5CCC6(CCc7cc(F)c(C(=O)N[C@H]8CCC(=O)NC8=O)cc7O6)CC5)CC4)cc3)C2(C)C)ccc1C#N [A-P-41] |
| 1660 nM | 52% | 70% |  | COc1cc(O[C@H]2C(C)(C)[C@H](NC(=O)c3ccc(N4CCC(CN5CCC6(CCc7cc(C(=O)N[C@H]8CCC(=O)NC8=O)c(F)cc7O6)CC5)(OC)CC4)cc3)C2(C)C)ccc1C#N [A-P-36] |
| 0.29 nM | 72% | 85% |  | COc1cc(O[C@H]2C(C)(C)[C@H](NC(=O)c3ccc(N4CCC(CN5CCC6(CCc7cc(C(=O)N[C@H]8CCC(=O)NC8=O)c(F)cc7O6)CC5)CC4)nn3)C2(C)C)ccc1C#N [A-P-34, 1'-((1-(6-(((1R,3R)-3-(4-cyano-3-methoxyphenoxy)-2,2,4,4-tetramethylcyclobutyl)carbamoyl)pyridazin-3-yl)piperidin-4-yl)methyl)-N-((S)-2,6-dioxopiperidin-3-yl)-7-fluorospiro[chroman-2,4'-piperidin]-6-carboxamide] |
| 41 nM | 48% | 62% |  | COc1cc(O[C@H]2C(C)(C)[C@H](NC(=O)c3ccc(N4CCC(C)(CN5CCC6(CCc7cc(C(=O)N[C@H]8CCC(=O)NC8=O)c(F)cc7O6)CC5)CC4)nc3)C2(C)C)ccc1C#N [A-P-49, 1'-((1-(5-(((1R,3R)-3-(4-cyano-3-methoxyphenoxy)-2,2,4,4-tetramethylcyclobutyl)carbamoyl)pyridin-2-yl)-4-methylpiperidin-4-yl)methyl)-N-((S)-2,6-dioxopiperidin-3-yl)-7-fluorospiro[chroman-2,4'-piperidin]-6-carboxamide] |
| 4240 nM | -56% | 23% |  | COc1cc(O[C@H]2C(C)(C)[C@H](NC(=O)c3ccc(N4CCC(F)(CN5CCC6(CCc7cc(C(=O)N[C@H]8CCC(=O)NC8=O)c(F)cc7O6)CC5)CC4)cc3)C2(C)C)ccc1C#N [A-P-52, 1'-((1-(4-(((1r,3r)-3-(4-cyano-3-methoxyphenoxy)-2,2,4,4-tetramethylcyclobutyl)carbamoyl)phenyl)-4-fluoropiperidin-4-yl)methyl)-N-((S)-2,6-dioxopiperidin-3-yl)-7-fluorospiro[chroman-2,4'-piperidin]-6-carboxamide] |
| 1550 nM | 8% | 35% |  | COc1cc(O[C@H]2C(C)(C)[C@H](NC(=O)c3ccc(N4CCC(C)(CN5CCC6(CCc7cc(C(=O)N[C@H]8CCC(=O)NC8=O)c(F)cc7O6)CC5)CC4)cn3)C2(C)C)ccc1C#N [A-P-43, 1'-((1-(6-(((1r,3r)-3-(4-cyano-3-methoxyphenoxy)-2,2,4,4-tetramethylcyclobutyl)carbamoyl)pyridin-3-yl)-4-methylpiperidin-4-yl)methyl)-N-((S)-2,6-dioxopiperidin-3-yl)-7-fluorospiro[chroman-2,4'-piperidin]-6-carboxamide] |
